Patent US6372297B1, “Wood preservative oxathiazines” (Uniroyal Chemical Company, Inc., priority 1993, dated 2002)
Where two headings read alike, the source gives them in different places.

Experiments:
Format in all cases: cell-based
Pseudomonas aeruginosa = assay: Wood preservative efficacy against bacteria and yeasts, tryptose agar plates; design: key: 0 = growth equal to control, 1 = growth inhibited, 2 = no growth; details: 100 ppm in tryptose agar
Experimental: (§1) Compositions were prepared by dissolving the compounds shown in Table 1 in 50% ethanol and further diluting with sterile distilled water. […] After cooling, the medium was inoculated with the bacteria listed below. After sufficient growth of the untreated cultures, the compounds were evaluated using the following rating system: 0=growth equal to control 1=inhibition of growth by the compound 2=no growth under the influence of the compound. In this Table, the higher numbers are the most preferred species. Pseudomonas aeruginosa (gram neg)

Chaetomium globosum = assay: Wood preservative efficacy against fungi, agar plate colony diameter; details: 10 ppm, Table 6B
Experimental: (§2) Each plate was inoculated with a spore suspension or with a small piece of agar (1 mm) from the margin of an actively growing colony of the test fungus. The fungi employed are listed below. After incubation at 22° C. and 70% relative humidity during a period long enough to allow significant growth of untreated controls, the diameters of the fungus colonies were measured and scored using the following rating system: 0=free of fungal growth 1=25% of fungal growth compared to untreated 2=50% of fungal growth compared to untreated 3=75% of fungal growth compared to untreated 4=Growth equal to that of untreated The scores measured for wood preservation efficacy of the compounds of this invention are listed in Tables 6a and 6b. In these Tables, the lower numbers are the most preferred species. Chaetomium globosum

Escherichia coli = assay: Wood preservative efficacy against bacteria and yeasts, tryptose agar plates; design: key: 0 = growth equal to control, 1 = growth inhibited, 2 = no growth
Experimental: as §1, with “Escherichia coli” for “Pseudomonas aeruginosa”, “[…])” for “neg)”

Enterobacter aerogenes = assay: as above; design: key: 0 = growth equal to control, 1 = inhibition, 2 = no growth
Experimental: as §1, with “Enterobacter aerogenes” for “Pseudomonas aeruginosa”

Coriolus versicolor = assay: Wood preservative efficacy against fungi, agar plate colony diameter; details: Table 6B
Experimental: as §2, with “Coriolus versicolor” for “Chaetomium globosum”

[1] = tested on: molds and blue-stain fungi; assay: In vitro activity against molds and blue-stain fungi, poison plate assay (MIC); details: malt extract agar, complete inhibition
In short: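 Poison plate format: compound diluted in sterile water and mixed into malt extract agar, then plates inoculated with each fungus. Growth inhibition scored at each concentration to give the MIC.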

Streptomyces albus = assay: Wood preservative efficacy against bacteria and yeasts, tryptose agar plates; design: key: 0 = growth equal to control, 1 = inhibition, 2 = no growth
Experimental: as §1, with “Streptomyces albus” for “Pseudomonas aeruginosa”, “pos)” for “neg)”

Aspergillus niger = assay: Wood preservative efficacy against fungi, agar plate colony diameter; details: 10 ppm, Table 6B
Experimental: as §2, with “Aspergillus niger” for “Chaetomium globosum”

In the case of C[S+]1CCON=C1c1cc(Cl)cc(Cl)c1 (centres unmarked) [Compound 19], the “Score of bactericidal activity, P. aeruginosa” value (Pseudomonas aeruginosa) is reported as 0, the “Score of fungicidal activity, C. GLOBOSUM” value (Chaetomium globosum) is reported as 0 and the “Score of bactericidal activity, E. Coli” value (Escherichia coli; 10 ppm in tryptose agar) is reported as 0. For the same compound, the “Score of bactericidal activity, E. Coli” value (Escherichia coli; 100 ppm in tryptose agar) was 0, the “Score of bactericidal activity, E. aerogenes” value (Enterobacter aerogenes; 10 ppm in tryptose agar) was 0 and the “Score of bactericidal activity, E. aerogenes” value (Enterobacter aerogenes; 100 ppm in tryptose agar) was 0. For the same compound, the “Score of fungicidal activity, G. VERSICLOR” value (Coriolus versicolor; 1 ppm) was 2 (50% of growth compared to untreated control), the “Score of fungicidal activity, G. VERSICLOR” value (Coriolus versicolor; 10 ppm) was 0 and the “MIC (ppm) against A. amstelodami” value ([1]; A. amstelodami) was 25 ppm. The “MIC (ppm) against A. versicolor” value ([1]; A. versicolor) was 25 ppm, the MIC ([1]; Aspergillus niger, A. niger, read-out: MIC (ppm) against A. niger) was 2.5 µg/mL and the MIC ([1]; Aureobasidium pullulans, A. pullulans, read-out: MIC (ppm) against A. pullulans) was 25 µg/mL. The “MIC (ppm) against C. pilifera” value ([1]; C. pilifera) was 10 ppm, the MIC ([1]; Cladosporium cladosporioides, C. cladosporioides, read-out: MIC (ppm) against C. cladosporioides) was 25 µg/mL and the “MIC (ppm) against F. solani” value ([1]; F. solani) was over 25 ppm. For the same compound, the MIC ([1]; Geotrichum candidum, G. candidum, read-out: MIC (ppm) against G. candidum) was over 25 µg/mL, the “MIC (ppm) against P. purpurogenum” value ([1]; P. purpurogenum) was 25 ppm and the “MIC (ppm) against P. variotii” value ([1]; P. variotii) was 25 ppm. The “MIC (ppm) against P. violacea” value ([1]; P. violacea) was over 25 ppm, the “MIC (ppm) against S. atra” value ([1]; S. atra) was 25 ppm and the “MIC (ppm) against S. entoxylina” value ([1]; S. entoxylina) was 25 ppm. The MIC ([1]; Trichoderma viride, T. viride, read-out: MIC (ppm) against T. viride) was 25 µg/mL, the “MIC (ppm) against U. atrum” value ([1]; U. atrum) was over 25 ppm and the “Score of bactericidal activity, S. albus” value (Streptomyces albus; 10 ppm in tryptose agar) was 0. For the same compound, the “Score of bactericidal activity, S. albus” value (Streptomyces albus; 100 ppm in tryptose agar) was 2 and the “Score of fungicidal activity, A. NIGER” value (Aspergillus niger) was 0.
